The target in assay [1] is T1, Immobilized Streptavidin (Streptomyces avidinii, UniProt P22629).
T1 construct: purchased Pierce Chemical Co
Briefly: Binding of [125I]-labelled biotinyl-SRIFs (solubilized R:L complex) to immobilized streptavidin. The note with it: for Initial CPM: 100 ul of initial 100,000 x g supernatant containing soluble R:L complex; for CPM (non-bound), 1 hour: 100 ul supernatant after 1 hour incubation with SA-agarose; for CPM (non-bound), 1 hour / CPM (non-bound), 3 hours: 4-10 C; for CPM (non-bound), 3 hours: 100 ul supernatant after 3 hours incubation with SA-agarose; for % Binding of Radioligand to SA-Agarose, 1 hour, % Bound: 1 hour incubation with SA-agarose; for % Binding of Radioligand to SA-Agarose, 3 hours, % Bound: 3 hours incubation with SA-agarose. The method, then:
(§1) To compare the three biotinyl-SRIF analogs in terms of binding to streptavidin, the following experiment is done. [^125 I]Bio-SRIF analogs are bound to GH4 C1 membranes as described ("Methods: Receptor Binding Methods, 3"). All radioligands are at a concentration of […] cpm/ml. For each radioligand, a control for non-specific binding was done in the presence of 1 uM cold S14. CPM bound/mg membrane protein after the binding step are as follows: [^125 I]Bio-6C-S14=755,020 (total) and 43,361 (non-specific); [^125 I]Bio-12C=S14=633,134 (total) and 39,538 (nonspecific); [^125 I]Bio-S28=1,065,512 (total) and 35,049 (nonspecific). The membrane pellets are solubilized in solubilization buffer containing 0.15% deoxycholate:lysolecithin and 0.2 mM MgCl2 as described ("Methods: Membrane Solubilization"). […] One ml samples of solubilized membranes are incubated with 0.05 ml vols of streptavidin-agarose at 4°-10° C. on a tube rotator for the times shown. Non-specific binding samples are not done due to the low levels of non-specific binding. At the times shown, the […] beads are spun down and 100 ul samples of supernatant are counted. The cpm are compared to initial cpm in the sample and % binding to SA is calculated from this. Also, it should be noted that binding of cpm from the supernatant is considered to parallel the binding of R:L complex. Several observations confirm that this is a valid assumption.

For assay [2], the system named is SRIF receptor. The assay is described as follows: Binding of [125I]Bio-SRIF analogs to GH4 C1 membranes (CPM bound). Also on record: species or system rat. The note with it: for CPM bound/mg membrane protein (total): after the binding step; for CPM bound/mg membrane protein (non-specific): in the presence of 1 uM cold S14. The method, then:
3. Chemical cross-linking of radioligand with receptor is done after a binding step identical to the standard assay. However, the wash step is done with binding buffer minus BSA to reduce the possibility of non-specific cross-linking of radioligand with BSA. The cross-linking step is carried out as described below.
as §1

The target in assay [3] is SRIF receptor. Briefly: Scatchard analysis of binding of [125I]-labelled SRIF analogs to GH4 C1 membranes. Also on record: species or system rat. The note with it: GH4 C1 membranes (FIG. 2), read-out: dissociation constant (KD). The procedure: 1. Standard Binding Assays--Binding assays are done in a binding buffer containing 50 mM HEPES (pH 7.4), 0.5% BSA and 5 mM MgCl2. The standard assay for [^125 I]SRIF analog binding to GH4 C1 membranes, done in 96 well microtiter plates (Dynataech Immulon II Removawell plates), is carried out as follows: 1. Radioligand is diluted in binding buffer+ PMSF/Baci to the desired cpm per vol. of 50 μl and then 50 μl aliquots are added to the wells. For non-specific binding samples, 5 μl of 40 μM cold S14 is also added per well. 2. Binding is initiated by adding 150 μl per well of membrane diluted to the desired concentration (10-30 ug membrane protein/well) in binding buffer+ PMSF/Baci. Plates are then covered with Linbro mylar plate sealers (Flow Labs) and placed on a Dynatech Microshaker II and binding is allowed to proceed at room temperature for 1-2 hours. Binding is stopped by centrifuging the plate for 15 minutes at 2,000×g. The supernatants are dumped off and membrane pellets washed once by addition of 200 μl of ice cold binding buffer, brief shaking and recentrifugation. Finally the individual wells are placed in 12×75 mm tubes and counted in an LKB Gammamaster counter (78% efficiency). Specific binding by this method is identical to that measured when free ligand is removed by rapid (3-5 seconds) filtration and washing on polyethyleneimine-coated glass fiber filters.
Because Bio-C6-S14, Bio-C12-S14 and Bio-S28 all contain tyrosine residues, it is possible to prepare their [^125 I] labelled analogs and carry out Scatchard analyses of their binding affinities relative to [^125 I]Tyr11-S14 (FIG. 2). As shown in the figure, the [^125 I]-labelled peptides fall in the same order of potency as their non-labelled forms. The dissociation constants (KDs) and relative binding affinities are [^125 I]Tyr11-S14 (0.1 nM)>[^125 I]Bio-S28 (0.2 nM)>[^125I]Bio-6C-S14 (0.3 nM)>[^125 I]Bio-12C-S14 (0.4 nM).

Assay [4] has as its system SRIF receptor. Briefly: Lectin affinity binding (WGA-agarose) of solubilized receptor:[125I]Tyr11-S14 complex. Also on record: species or system rat. The note with it: for A/B, GFB/PEI filters: Recovery of soluble R:L complex. The procedure: 4. Larger scale binding assays to obtain membrane pellets for studies on solubilization of receptor: ligand complex and for receptor purification are also carried out. These are identical to the standard assays except that: (a) Binding is carried out in polypropylene tubes in volumes from 1-250 ml, (b) Concentration of membrane protein is always 0.5 mg/ml, (c) For receptor purification, BSA concentration in the binding buffer is reduced to 0.25% and the wash step is done with binding buffer without BSA. This is to reduce BSA contamination of the purified receptor.
H. Assay of Solubilized Receptors--After binding of [^125 I]SRIF analogs and solubilization of the membranes with detergent, the intact R:L complex could be assayed by four different methods (all carried out on ice or in a cold room at 4°-10° C.): (1) Column chromatography (Knuhtsen et al., Biochem. J. 254:641-647, 1988). Sephadex G-50 columns (8×250 mm) are equilibrated with solubilization buffer containing detergent at the concentration used to solubilize membranes and 1 mg/ml bovine serum albumin. 0.2-0.5 ml samples of solubilized membranes are applied to the columns and eluted at a flow rate of about 0.7 ml/minute. 0.18 ml samples are collected. Radioactivity is determined in a gamma counter as described under "Receptor Binding Methods". Void volumes of the columns are determined by the elution volume of blue dextran. Radioactivity eluting in the void volume (>50,000 MW) was considered bound to protein. Radioactivity eluting later, at the same volume as free [^125 I]SRIF, is considered non-bound. (2) Polyethyleneglycol precipitation (Cuatrecasas, PNAS USA 69:318-322, 1972) For a 100 ul sample of solubilized membranes in a 12×75 mm polypropylene tube, 0.5 ml of 1% (w/v) bovine gamma globulin (Sigma) in 0.1M sodium phosphate buffer is added, followed by 0.5 ml of 25% (w/v) polyethyleneglycol (Sigma) and mixing. The mixture is held on ice for 15 minutes. Then 3 ml of 0.1M sodium phosphate (pH 7.4) is added per sample and the samples are rapidly (1-3 seconds) filtered over Whatman GF/B glass fiber filters and washed with 4 ml of the phosphate buffer. PEG precipitated SRIF receptor:[^125 I]SRIF complex is determined by gamma counting of the filters. (3) GFB/PEI filter binding (Bruns et al., Analytical Biochem. 132:74-81, 1983). Whatman GF/B glass fiber filters are soaked in 0.3% polyethyleneimine (PEI, Sigma) for 3 hours. 25-100 ul samples of solubilized membranes are replaced in 12×75 mm polypropylene tubes. Then 4 ml of solubilization buffer (without detergent) is added per sample and the samples are immediately filtered through the GFB/PEI filters (1-3 seconds) and washed with 4 ml of solubilization buffer. CPM of SRIF receptor:[^125 I]SRIF complex adsorbed to filters are determined by gamma counting. (4) Charcoal/Dextran (Paul and Said, Peptides 7[Suppl. 1]:147-149, 1986). 0.5 gm of Dextran T70 (Pharmacia) is dissolved in 1 liter of water and then 5 gm of activated charcoal (Norit A, alkaline; Fisher Scientific) is added. The suspension is stirred for 10 minutes at room temperature and then stored at 4° C. until use. To measure R:L complex, 4 parts by volume of charcoal/dextran suspension are added to 1 part by volume of solubilized membrane. The samples are mixed and held on ice for 2 minutes and then centrifuged for 2 minutes at 11,000×g in a Beckman microfuge. Free radioligand is adsorbed charcoal/dextran and is discarded with the pellet. SRIF receptor:[^125 I]SRIF complex remain in the supernatant and is determined by gamma counting.
A. Solubilized Receptor: [^125 I]Tyr11-S14 Complex-Binding of [^125 I][…] to GH4 C1 membranes is carried out as in "Receptor Binding Methods. 4". Binding incubations contain 0.5 mg/ml membrane protein and 6×10^6 cpm/ml of [^125 I]Tyr11-S14. Solubilization of membranes in 0.15% deoxycholate:lysolecithin is also as previous described. […]

Where [5] appears, read: Sample: 100,000 x g supernatant.
Where [6] appears, read: Sample: Eluted from WGA-agarose.
Setting [7] is: Sample: Non-bound to WGA-agarose.

Bridge positions count the residues as written; N and C are the ends. Square brackets hold non-standard residues; d marks the D form. Peptide text beside a SMILES is read from it. * marks the point of attachment. Biotin = O=C1N[C@H]2[C@H](CS[C@H]2CCCCC(=O)*)N1; Tyr(3-I) = N[C@@H](Cc1ccc(O)c(I)c1)C(=O)O; Ahx = NCCCCCC(=O)O

T1 sequence (P22629 25-183): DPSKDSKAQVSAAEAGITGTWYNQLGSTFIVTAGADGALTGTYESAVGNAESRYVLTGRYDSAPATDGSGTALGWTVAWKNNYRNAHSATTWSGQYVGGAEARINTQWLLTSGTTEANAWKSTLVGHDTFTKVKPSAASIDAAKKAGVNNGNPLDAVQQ

Broadly, the Kd is the concentration at which binding is half-saturated. For `C[C@H](NC(=O)CCCCCNC(=O)CCCCCNC(=O)CCCC[C@@H]1SC[C@@H]2NC(=O)N[C@@H]21)C(=O)NCC(=O)N[C@H]1CSSC[C@@H](C(=O)O)NC(=O)[C@H](CO)NC(=O)[C@H]([C@@H](C)O)NC(=O)[C@H](Cc2ccc(O)c(I)c2)NC(=O)[C@H]([C@@H](C)O)NC(=O)[C@H](CCCCN)NC(=O)[C@H](Cc2c[nH]c3ccccc23)NC(=O)[C@H](Cc2ccccc2)NC(=O)[C@H](Cc2ccccc2)NC(=O)[C@H](CC(N)=O)NC(=O)[C@H](CCCCN)NC1=O` [[^125 I]Bio-12C-S14] ({Biotin-Ahx-Ahx}-AGCKNFFWKT[Tyr(3-I)]TSC-OH; disulfide 3-14 (inferred); C-terminus assumed), in assay [1], the “Initial CPM” value is listed as 54,344 CPM; the “CPM (non-bound), 1 hour” value is given as 23,391 CPM; the “CPM (non-bound), 3 hours” value is 13,071 CPM; the “% Binding of Radioligand to SA-Agarose, 1 hour, % Bound” value came to 57%. The “% Binding of Radioligand to SA-Agarose, 3 hours, % Bound” value in assay [1] turned out to be 76%. For the same molecule, in assay [2], the “CPM bound/mg membrane protein (total)” value is listed as 633,134 CPM bound/mg membrane protein and the “CPM bound/mg membrane protein (non-specific)” value was 39,538 CPM bound/mg membrane protein. For the same molecule, the Kd in assay [3] stood at 0.4 nM.
As to `C[C@H](NC(=O)CCCCCNC(=O)CCCC[C@@H]1SC[C@@H]2NC(=O)N[C@@H]21)C(=O)NCC(=O)N[C@H]1CSSC[C@@H](C(=O)O)NC(=O)[C@H](CO)NC(=O)[C@H]([C@@H](C)O)NC(=O)[C@H](Cc2ccc(O)c(I)c2)NC(=O)[C@H]([C@@H](C)O)NC(=O)[C@H](CCCCN)NC(=O)[C@H](Cc2c[nH]c3ccccc23)NC(=O)[C@H](Cc2ccccc2)NC(=O)[C@H](Cc2ccccc2)NC(=O)[C@H](CC(N)=O)NC(=O)[C@H](CCCCN)NC1=O` [[^125 I]Bio-6C-S14] ({Biotin-Ahx}-AGCKNFFWKT[Tyr(3-I)]TSC-OH; disulfide 3-14), in assay [1], the “Initial CPM” value is on record as 63,490 CPM; the “CPM (non-bound), 1 hour” value is recorded as 28,381 CPM; the “CPM (non-bound), 3 hours” value was 16,228 CPM; the “% Binding of Radioligand to SA-Agarose, 1 hour, % Bound” value was found to be 55%. For the same molecule, the “% Binding of Radioligand to SA-Agarose, 3 hours, % Bound” value in assay [1] is given as 74%. Besides, in assay [2], the “CPM bound/mg membrane protein (total)” value is recorded as 755,020 CPM bound/mg membrane protein and the “CPM bound/mg membrane protein (non-specific)” value was 43,361 CPM bound/mg membrane protein. Moreover, the Kd in assay [3] stood at 0.3 nM.
With `C[C@H](N)C(=O)NCC(=O)N[C@H]1CSSC[C@@H](C(=O)O)NC(=O)[C@H](CO)NC(=O)[C@H]([C@@H](C)O)NC(=O)[C@H](Cc2ccc(O)c(I)c2)NC(=O)[C@H]([C@@H](C)O)NC(=O)[C@H](CCCCN)NC(=O)[C@H](Cc2c[nH]c3ccccc23)NC(=O)[C@H](Cc2ccccc2)NC(=O)[C@H](Cc2ccccc2)NC(=O)[C@H](CC(N)=O)NC(=O)[C@H](CCCCN)NC1=O` [[^125 I]Tyr11-S14] (H-AGCKNFFWKT[Tyr(3-I)]TSC-OH; disulfide 3-14 (inferred); N-terminus and C-terminus assumed), the Kd in assay [3] was determined as 0.1 nM. Further, the “A/B, GFB/PEI filters” value in assay [4] (100,000 x g supernatant) was found to be 11.3; in assay [4] (Eluted from WGA-agarose), 33.7; in assay [4] (Non-bound to WGA-agarose) it was 2.9. In addition, the “A/B (total/non-specific)” value came to 8.2 in assay [4] (setting [5]); 22.1 in assay [4] (Sample: Bound to WGA-agarose); 23.0 in assay [4] (setting [6]); 5.3 in assay [4] (Sample: Membranes); 2.4 in assay [4] (setting [7]). Besides, the “CPM of [125I]Tyr11-S14, A. Total” value in assay [4] (setting [5]) is 104,420 CPM; in assay [4] (Sample: Bound to WGA-agarose), 69,889 CPM; in assay [4] (setting [6]) it was 58,925 CPM; in assay [4] (Sample: Membranes) it was 151,848 CPM; in assay [4] (setting [7]), 23,112 CPM. Moreover, the “CPM of [125I]Tyr11-S14, B. Non-Specific” value in assay [4] (setting [5]) is listed as 12,756 CPM; in assay [4] (Sample: Bound to WGA-agarose) it was 3,157 CPM; in assay [4] (setting [6]), 2,524 CPM; in assay [4] (Sample: Membranes) it was 28,812 CPM; in assay [4] (setting [7]) it was 9,624 CPM.
